Experimental data taken from patent US5942514A, “Quinazoline derivatives” (Zeneca Limited, priority 1995, dated 1999).

Tests used:
KB cells = assay: In vitro assay: inhibition of the EGF-stimulated growth of the human naso-pharyngeal cancer cell line KB (Test (b)); type: cell-based; settings: 72 h, EGF 10 ng/ml, 3 days, MTT, approximate values
Protocol: (b) An in vitro assay which determines the ability of a test compound to inhibit the EGF-stimulated growth of the human naso-pharyngeal cancer cell line KB.
KB cells were seeded into wells at a density of 1×10^4 -1.5×10^4 cells per well and grown for 24 hours in DMEM supplemented with 5% FCS (charcoal-stripped). Cell growth was determined after incubation for 3 days by the extent of metabolism of MTT tetrazolium dye to furnish a bluish colour. Cell growth was then determined in the presence of EGF (10 ng/ml) or in the presence of EGF (10 ng/ml) and a test compound at a range of concentrations. An IC50 value could then be calculated.

[1] = target: T1, EGF receptor tyrosine kinase (Homo sapiens, UniProt P00533); assay: In vitro assay: ability of a test compound to inhibit the enzyme EGF receptor tyrosine kinase (Test (a)); type: biochemical; settings: EGF receptor tyrosine kinase from A431 cells; approximate values
T1 construct: Receptor tyrosine kinase was obtained in partially purified form from A431 cells; endogenous in cells; host or cells: A431 cells (human vulval carcinoma), Triton X-100 solubilised membrane fraction
Protocol: (a) An in vitro assay which determines the ability of a test compound to inhibit the enzyme EGF receptor tyrosine kinase.
A-431 cells were grown to confluence using Dulbecco's modified Eagle's medium (DMEM) containing 5% fetal calf serum (FCS). […] The homogenate was centrifuged at 400 g for 10 minutes at 0-4° C. The supernatant was centrifuged at 25,000 g for 30 minutes at 0-4° C. The pelleted material was suspended in 30 mM Hepes buffer at pH 7.4 containing 5% glycerol, 4 mM benzamidine and 1% Triton X-100, stirred for 1 hour at 0-4° C., and recentrifuged at 100,000 g for 1 hour at 0-4° C. The supernatant, containing solubilised receptor tyrosine kinase, was stored in liquid nitrogen.
There was thus obtained the test enzyme solution.
Equal volumes of this solution and a solution of epidermal growth factor (EGF; 20 μg/ml) were mixed.
[γ-^32 P]ATP (3000 Ci/mM, 250 μCi) was diluted to a volume of 2 ml by the addition of a solution of ATP (100 μM) in distilled water. An equal volume of a 4 mg/ml solution of the peptide […]in a mixture of 40 mM Hepes buffer at pH 7.4, 0.1% Triton X-100 and 10% glycerol was added.
The test compound/EGF mixture solution (5 μl) was added to the test enzyme solution (10 μl) and the mixture was incubated at 0-4° C. for 30 minutes. The ATP/peptide mixture (10 μl) was added and the mixture was incubated at 25° C. for 10 minutes. The phosphorylation reaction was terminated by the addition of 5% trichloroacetic acid (40 μl) and bovine serum albumin (BSA; 1 mg/ml, 5 μl). The mixture was allowed to stand at 4° C. for 30 minutes and then centrifuged. An aliquot (40 μl) of the supernatant was placed onto a strip of Whatman p 81 phosphocellulose paper. The strip was washed in 75 mM phosphoric acid (4×10 ml) and blotted dry. Radioactivity present in the filter paper was measured using a liquid scintillation counter (Sequence A). The reaction sequence was repeated in the absence of the EGF (Sequence B) and again in the absence of the test compound (Sequence C).
Receptor tyrosine kinase inhibition was calculated as follows: [formula]

T1 sequence (P00533 25-1210): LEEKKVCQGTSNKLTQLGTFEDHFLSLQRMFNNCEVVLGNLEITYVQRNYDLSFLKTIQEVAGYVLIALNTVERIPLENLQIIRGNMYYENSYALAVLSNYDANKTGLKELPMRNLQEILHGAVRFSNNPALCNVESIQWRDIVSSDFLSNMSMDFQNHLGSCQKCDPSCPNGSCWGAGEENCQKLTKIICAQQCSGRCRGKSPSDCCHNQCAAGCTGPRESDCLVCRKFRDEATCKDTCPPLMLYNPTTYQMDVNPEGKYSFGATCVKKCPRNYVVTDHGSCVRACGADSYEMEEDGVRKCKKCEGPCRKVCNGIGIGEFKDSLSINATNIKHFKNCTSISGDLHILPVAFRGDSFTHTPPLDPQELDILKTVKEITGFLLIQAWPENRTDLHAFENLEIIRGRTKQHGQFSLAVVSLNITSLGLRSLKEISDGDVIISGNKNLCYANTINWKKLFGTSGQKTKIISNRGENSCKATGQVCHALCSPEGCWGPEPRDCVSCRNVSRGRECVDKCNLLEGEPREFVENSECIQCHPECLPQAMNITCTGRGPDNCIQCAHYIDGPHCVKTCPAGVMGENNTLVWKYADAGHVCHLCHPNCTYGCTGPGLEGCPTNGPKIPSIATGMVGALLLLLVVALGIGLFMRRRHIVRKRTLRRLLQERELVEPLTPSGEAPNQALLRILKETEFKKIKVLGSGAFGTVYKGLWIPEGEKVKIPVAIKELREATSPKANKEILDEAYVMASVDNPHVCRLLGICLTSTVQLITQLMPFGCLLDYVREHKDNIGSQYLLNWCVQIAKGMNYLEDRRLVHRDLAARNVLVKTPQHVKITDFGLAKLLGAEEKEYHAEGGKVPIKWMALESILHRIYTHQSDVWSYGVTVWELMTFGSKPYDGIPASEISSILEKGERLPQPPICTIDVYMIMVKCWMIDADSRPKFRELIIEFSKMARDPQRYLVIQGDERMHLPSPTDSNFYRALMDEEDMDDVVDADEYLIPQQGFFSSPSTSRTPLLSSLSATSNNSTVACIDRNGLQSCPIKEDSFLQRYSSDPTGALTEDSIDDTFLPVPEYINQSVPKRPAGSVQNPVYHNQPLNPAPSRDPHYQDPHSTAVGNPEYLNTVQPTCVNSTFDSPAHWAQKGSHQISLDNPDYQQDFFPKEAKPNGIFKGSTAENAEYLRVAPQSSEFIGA

| SMILES | IC50 (KB cells) | IC50 [1] |
| --- | --- | --- |
| COCCNc1ccc2ncnc(Nc3ccc(F)cc3F)c2c1 [Example 4, 4-(2',4'-difluoroanilino)-6-(2-methoxyethylamino)quinazoline] | 1100 nM | 300 nM |
| COCCCNc1ccc2ncnc(Nc3ccc(F)c(Cl)c3)c2c1 [Example 1, 4-(3'-chloro-4'-fluoroanilino)-6-(3-methoxypropylamino)quinazoline] | 100 nM | 50 nM |
| COCCNc1ccc2ncnc(Nc3ccc(F)c(Cl)c3)c2c1 [Example 3, 4-(3'-chloro-4'-fluoroanilino)-6-(2-methoxyethylamino)quinazoline] | 300 nM | 40 nM |
| COCCNc1ccc2ncnc(Nc3ccc(F)c(F)c3)c2c1 [Example 2, 4-(3',4'-difluoroanilino)-6-(2-methoxyethylamino)quinazoline] | 500 nM | 300 nM |
